Here are results for 14 compounds from ChEMBL document CHEMBL1130390, “Design and synthesis of novel imidazole-substituted dipeptide amides as potent and selective inhibitors of Candida albicans myristoylCoA:protein N-myristoyltransferase and identification of related tripeptide inhibitors with mechanism-based antifungal activity” (J Med Chem, 1997).

The structures appear in SMILES notation.

As usually defined, the IC50 is the concentration needed to halve the response being measured. Broadly, the EC50 is the concentration giving half of the maximal effect. A high value points to a need for much substance.

Experiment [1] has as its target Peptide N-myristoyltransferase (Candida albicans).
The target in experiment [2] is T1, Peptide N-myristoyltransferase (Homo sapiens, UniProt P30419+O60551).
T1 sequence (P30419 whole entry): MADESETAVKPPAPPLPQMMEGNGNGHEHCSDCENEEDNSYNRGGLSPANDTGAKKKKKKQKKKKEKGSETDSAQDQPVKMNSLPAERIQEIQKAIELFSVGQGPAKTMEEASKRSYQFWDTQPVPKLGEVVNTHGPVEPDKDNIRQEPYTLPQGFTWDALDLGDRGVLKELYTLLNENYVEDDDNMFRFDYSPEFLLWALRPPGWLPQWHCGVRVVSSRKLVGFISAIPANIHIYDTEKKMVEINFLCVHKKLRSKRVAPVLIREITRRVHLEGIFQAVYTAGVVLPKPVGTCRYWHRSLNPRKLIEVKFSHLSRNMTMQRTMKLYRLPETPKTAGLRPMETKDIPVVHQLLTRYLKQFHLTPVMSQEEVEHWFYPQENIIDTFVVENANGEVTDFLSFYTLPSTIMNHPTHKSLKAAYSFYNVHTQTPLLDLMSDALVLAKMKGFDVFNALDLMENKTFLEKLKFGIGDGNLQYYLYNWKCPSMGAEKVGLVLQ
T1 sequence (O60551 whole entry): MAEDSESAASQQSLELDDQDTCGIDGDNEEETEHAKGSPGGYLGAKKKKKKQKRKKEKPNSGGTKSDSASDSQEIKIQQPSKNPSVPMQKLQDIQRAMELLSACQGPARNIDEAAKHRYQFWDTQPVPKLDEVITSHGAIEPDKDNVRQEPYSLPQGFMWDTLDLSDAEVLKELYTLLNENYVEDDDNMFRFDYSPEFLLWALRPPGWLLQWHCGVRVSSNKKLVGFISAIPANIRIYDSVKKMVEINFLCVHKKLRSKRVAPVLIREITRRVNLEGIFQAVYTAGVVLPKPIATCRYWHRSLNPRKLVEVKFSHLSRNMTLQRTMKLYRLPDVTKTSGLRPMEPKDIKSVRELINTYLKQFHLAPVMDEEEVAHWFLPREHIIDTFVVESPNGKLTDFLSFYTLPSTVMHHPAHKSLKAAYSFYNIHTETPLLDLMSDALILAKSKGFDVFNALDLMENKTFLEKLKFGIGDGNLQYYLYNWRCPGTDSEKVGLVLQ
The experiment is described as follows: Inhibition activity against N-myristoyltransferase (NMT) of human. It counts as protein assay.

A further experiment has as its system Cryptococcus neoformans. The experiment is described as follows: Growth inhibitory activity against Cryptococcus neoformans. The experiment is classed as functional, organism-based.
Experiment [3] concerns Candida albicans. The experiment in a line: Growth inhibitory activity against candida albicans. It counts as functional, organism-based.
Experiment [4] concerns Candida albicans. The experiment is described as follows: tested to obtain the effective concentration to inhibit candida albicans. The experiment is classed as functional, organism-based.

As to `NCCCC[C@H](NC(=O)[C@H](CO)NC(=O)Cc1ccc(CCCCn2ccnc2)cc1)C(=O)NCCC1CCCCC1`, the IC50 in experiment [1] was determined as 0.31 µM.
`Cc1nc2ccccc2n1CCCCc1ccc(C(C)C(=O)N[C@@H](CO)C(=O)N[C@@H](CCCCN)C(=O)NCCC2CCCCC2)cc1` (stereo not given in full): the results for the IC50 in experiment [2] and in experiment [1] were 119.5 µM and 0.86 µM, respectively.
Consider `Cc1nccn1CCCCc1ccc(CC(=O)N[C@@H](CO)C(=O)N[C@@H](CCCCN)C(=O)N[C@@H](CC2CCCCC2)C(=O)O)cc1`, for which the EC50 in the experiment on Cryptococcus neoformans is greater than 100 µM; in the experiment with Candida albicans [3], 51 µM. The IC50 came to 809.5 µM in experiment [2] and 1.45 µM in experiment [1].
As to `NCCCC[C@H](NC(=O)[C@H](CO)NC(=O)Cc1ccc(CCCCn2ccnc2I)cc1)C(=O)NCCC1CCCCC1`, the IC50 in experiment [1] came to 1.88 µM.
Consider `Cc1nccn1CCCCc1ccc(CC(=O)N[C@H](CO)C(=O)N[C@H](CCCCN)C(=O)N[C@H](CC2CCCCC2)C(=O)O)cc1`, for which the EC50 with Cryptococcus neoformans and in the experiment with Candida albicans [4] was greater than 100 µM throughout. The IC50 in experiment [2] and in experiment [1] was greater than 1000 µM in each case.
On to `Cc1nccn1CCCCc1ccc(C(C)C(=O)N[C@@H](CO)C(=O)N[C@@H](CCCCN)C(=O)N[C@@H](CC2CCCCC2)C(=O)O)cc1` (stereo not given in full), for which the EC50 with Cryptococcus neoformans is greater than 100 µM; in the experiment with Candida albicans [4], 33 µM. Moreover, the IC50 is 840 µM in experiment [2] and 0.38 µM in experiment [1].
As for `NCCCC[C@H](NC(=O)[C@H](CO)NC(=O)CCCCCCCCn1ccnc1)C(=O)NCCC1CCCCC1`, in experiment [1], the IC50 was 5.5 µM.
`CCc1nccn1CCCCc1ccc(CC(=O)N[C@@H](CO)C(=O)N[C@@H](CCCCN)C(=O)NCCC2CCCCC2)cc1`: the results for the IC50 in experiment [2] and in experiment [1] were 28.2 µM and 0.147 µM, respectively.
For `NCCCC[C@H](NC(=O)[C@H](CO)NC(=O)CCCCCCCCCCCn1ccnc1)C(=O)NCCC1CCCCC1`, the IC50 in experiment [1] stood at 3 µM.
`NCCCC[C@H](NC(=O)[C@H](CO)NC(=O)CCCCCCCCCn1ccnc1)C(=O)NCCC1CCCCC1`: the IC50 in experiment [1] turned out to be 3 µM.
As for `CC(C)c1nccn1CCCCc1ccc(CC(=O)N[C@@H](CO)C(=O)N[C@@H](CCCCN)C(=O)NCCC2CCCCC2)cc1`, the IC50 is greater than 100 µM in experiment [2] and 0.2 µM in experiment [1].
For the compound `COC(=O)[C@H](NC(=O)[C@H](CCCCN)NC(=O)[C@H](CO)NC(=O)Cc1ccc(CCCCn2ccnc2C)cc1)C(=O)O`, the EC50 in the experiment on Cryptococcus neoformans and with Candida albicans [4] was greater than 100 µM in each case. The figures for the IC50 in experiment [2] and in experiment [1] were 22.7 µM and 0.081 µM, respectively.
The compound `NCCCC[C@H](NC(=O)[C@H](CO)NC(=O)Cc1ccc(CCCCCn2ccnc2)cc1)C(=O)NCCC1CCCCC1` came in with an IC50 in experiment [1] of 1.2 µM.
On to `CC(C(=O)N[C@@H](CO)C(=O)N[C@@H](CCCCN)C(=O)NCCC1CCCCC1)c1ccc(CCCCn2ccnc2Cl)cc1` (stereo not given in full), for which the figures for the IC50 in experiment [2] and in experiment [1] were 142 µM and 2.05 µM, respectively.
